The source of these data is patent US20260216109A1, “TREATMENT OF SKIN DISORDERS WITH SHORT CHAIN FATTY ACIDS” (Temple University-Of The Commonwealth System of Higher …, priority 2023, published 2026).

One assay concerns IL-17A. Kind of assay: Multiplex (MSD V-PLEX) cytokine release, InflammaSkin: IL-17A. The format is cell-based, human. The note with it: Day 7 supernatant, 0.05% Betamethasone topical, vs untreated InflammaSkin. The protocol:
A total of 16 biopsies of 15 mm diameter were produced from a single donor. Two NativeSkin® models with 12/15 mm silicon rings were produced from the biopsies according to standard procedures in place, and cultured under cell culture conditions (37° C., 5% CO2, max. humidity) for 7 days with 2 mL of standard NativeSkin® medium renewed every day. Fourteen PSO-InflammaSkin® models with 12/15 mm silicon rings were produced by inducing in situ activation and Th17/Th1 polarization of skin resident T cells with a proprietary cocktail, and cultured under cell culture conditions (37° C., 5% CO2, max. humidity) for 7 days with 2 mL of PSO-InflammaSkin® culture medium renewed every day.
From Day 1 to Day 6, models were systemically treated with 1 μM Otezla or Short Chain Fatty Acids (SCFAs), or topically treated with positive control 0.05% Betamethasone
In these experiments, the SCFAs administered were 45 μg/mL of Ca-propionate and 1 mM mixture of salts (Ca-butyrate and Mg-butyrate).
At Day 7, supernatants were collected and stored at −80° C. and skin models of all conditions were carefully unmolded. […]
Human pro-inflammatory cytokines released in the supernatant were quantified using the V-PLEX Human IL-17A Kit (MesoScale Discovery, reference: K151RFD-1) and V-PLEX Human TNFα Kit (MesoScale Discovery, reference: K151QWD-1). […]
(§1) Human pro-inflammatory cytokines released in the supernatant were quantified using the V-PLEX Human IL-17A Kit (MesoScale Discovery, reference: K151RFD-1) and V-PLEX Human custom Pro-inflammatory. […]
(§2) Samples were diluted four times for plate 2 and two times for plate 1. Samples and standards were assessed in duplicate. Plates were read on MesoScale Discovery Quickpleax SQ 120 plate reader and values expressed in pg/mL.
(§3) A statistical analysis was performed. […] First, the distribution's normality of the two compared group was assessed. […] If the two distributions were normal, the homogeneity of variances was assessed using a Fisher test on the variances. […]

The next assay has as its system IL-21. Kind of assay: Multiplex (MSD V-PLEX) cytokine release, InflammaSkin: IL-21. The settings on record: Example 2; 1 μM Otezla systemic; compared to untreated InflammaSkin. The assay is classed as cell-based, human. The procedure: A total of 16 biopsies of 15 mm diameter were produced from a single donor. Two NativeSkin® models with 12/15 mm silicon rings were produced from the biopsies according to standard procedures in place, and cultured under cell culture conditions (37° C., 5% CO2, max. humidity) for 7 days with 2 mL of standard NativeSkin® medium renewed every day. Fourteen PSO-InflammaSkin® models with 12/15 mm silicon rings were produced by inducing in situ activation and Th17/Th1 polarization of skin resident T cells with a proprietary cocktail, and cultured under cell culture conditions (37° C., 5% CO2, max. humidity) for 7 days with 2 mL of PSO-InflammaSkin® culture medium renewed every day. […]
as §1, §2, §3

For `CCOc1cc([C@@H](CS(C)(=O)=O)N2C(=O)c3cccc(NC(C)=O)c3C2=O)ccc1OC` [Otezla, Apremilast], the “IL-17A levels decreased by” value with IL-17A (Example 1, 1 μM Otezla or SCFA (45 μg/mL Ca-propionate + 1 mM Ca-/Mg-butyrate) systemic) is given as “about 95%”. For the same compound, in the assay with IL-17A (Example 2, 1 μM Otezla or SCFA systemic), the IL-17A secretion entry is on record as “significantly reduced”. Besides, in the assay with IL-21, the “increase of secretion of IL-21” value is “about 50%”.
